# In patent US9242984B2, “Pyrazolyl derivatives as Syk inhibitors” (Merck Sharp & Dohme Corp., priority 2012, dated 2016):
# Read-outs that look alike come from different tables or passages of the source.
# Molecular target: T1, recombinant human Syk (GST-hSyk fusion protein) (Homo sapiens, UniProt P43405)
# T1 construct: purchased Carna Biosciences 08-176
# Test: Homogeneous Time-Resolved Fluorescence (HTRF) assay for the recombinant human Syk enzyme
# Assay type: biochemical
# Details: 10-dose titration, 25 μM ATP
# Method: Syk inhibition may be determined using the following assay protocol:
# Homogeneous Time-Resolved Fluorescence (HTRF) Assay for the Recombinant Human Syk Enzyme:
# A recombinant GST-hSyk fusion protein was used to measure potency of compounds to inhibit human Syk activity. The recombinant human GST-Syk (Carna Biosciences #08-176) (5 pM final concentration) was incubated with various concentrations of the inhibitor diluted in DMSO (0.1% final concentration) for 10 minutes at room temperature in 15 mM Tris-HCl (pH 7.5), 0.01% tween 20, 2 mM DTT in 384 well plate format. To initiate the reaction the biotinylated substrate peptide (250 nM final concentration) that contains the phosphorylation site for Syk was added with magnesium (5 mM final concentration) and ATP (25 μM final concentration). Final volume of the reaction was 10 μL. Phosphorylation of the peptide was allowed to proceed for 45 minutes at room temperature. To quench the reaction and detect the phosphorylated product, 2 nM of a Europium-anti-phosphotyrosine antibody (Perkin Elmer #AD0161) and 70 nM SA-APC (Perkin-Elmer #CR130-100) were added together in 15 mM Tris pH 7.5, 40 mM EDTA, 0.01% tween 20. Final volume of the quenching solution was 10 μL. The resulting HTRF signal was measured after 30 minutes on an EnVision (Perkin-Elmer) reader using a time-resolved fluorescence protocol. IC50 was determined following 10-dose titration (10 μM to 0.508 nM) and four parameter logistic curve fitting using the Merck Assay Data Analyzer. The rhSyk activity (IC50) is expressed as +++(100 nM or less), ++(between 100 and 1000 nM), +(between 1 and 10 μM).
# [1] = IC50 class, read-out: rhSYK Activity
Compound,IC50 [1],IC50 (read-out: rhSYK IC50)
"O=C1NCC(Cn2cc(-c3cccc(Nc4cc(C(F)F)ccn4)n3)cn2)O1 (stereo not drawn) [Example 3.82, 5-{[4-(6-{[4-(difluoromethyl)pyridin-2-yl]amino}pyridin-2-yl)-1H-pyrazol-1-yl]methyl}-1,3-oxazolidin-2-one]",≤ 100 nM,
"Cc1cc(Nc2nccc(C(F)F)n2)cc(-c2cnn(CC3(O)CCS(=O)(=O)CC3)c2)c1 [Example 5.42, 4-{[4-(3-{[4-(difluoromethyl)pyrimidin-2-yl]amino}-5-methylphenyl)-1H-pyrazol-1-yl]methyl}tetrahydro-2H-thiopyran-4-ol 1,1-dioxide]",≤ 100 nM,
"Cc1cc(Nc2cc(C(F)(F)F)ccn2)nc(-c2cc(C(F)(F)F)nn2C)n1 [Example 1.46, 6-methyl-2-[1-methyl-3-(trifluoromethyl)-1H-pyrazol-5-yl]-N-[4-(trifluoromethyl)pyridin-2-yl]pyrimidin-4-amine]",1000 to 10000 nM,
"Cc1cc(Nc2nccc(C(F)F)n2)cc(-c2cnn(CC(O)C(F)(F)F)c2)c1 (stereo not drawn) [Example 5.24, 3-[4-(3-{[4-(difluoromethyl)pyrimidin-2-yl]amino}-5-methylphenyl)-1H-pyrazol-1-yl]-1,1,1-trifluoropropan-2-ol]",≤ 100 nM,
"Cc1cc(Nc2nccc(C(F)F)n2)cc(-c2cnn(CC(O)CO)c2)c1 (stereo not drawn) [Example 3.112, 3-[4-(3-{[4-(difluoromethyl)pyrimidin-2-yl]amino}-5-methylphenyl)-1H-pyrazol-1-yl]propane-1,2-diol]",≤ 100 nM,
"COc1ccc(OCC(O)Cn2cc(-c3cc(C)cc(Nc4nccc(C(F)(F)F)n4)c3)cn2)cc1 (stereo not drawn) [Example 5.11, 1-(4-methoxy-phenoxy)-3-[4-(3-methyl-5-{[4-(trifluoromethyl)-pyrimidin-2-yl]amino}phenyl)-1H-pyrazol-1-yl]propan-2-ol]",100 to 1000 nM,
"Cc1cc(Nc2nccc(C(F)(F)F)n2)cc(-c2cnn(CC(=O)NC(C)(C)C)c2)c1 [Example 3.8, N-tert-butyl-2-[4-(3-methyl-5-{[4-(trifluoromethyl)pyrimidin-2-yl]amino}-phenyl)-1H-pyrazol-1-yl]acetamide]",≤ 100 nM,
"Cc1cc(Nc2nccc(C(F)(F)F)n2)cc(-c2cnn(C(C)C(=O)O)c2)c1 (stereo not drawn) [Example 3.35, 2-[4-(3-methyl-5-{[4-(trifluoromethyl)pyrimidin-2-yl]amino}-phenyl)-1H-pyrazol-1-yl]propanoic acid]",≤ 100 nM,
"Cc1cc(Nc2nccc(C(F)(F)F)n2)cc(-c2cnn(C[C@H](C)CO)c2)c1 [Example 3.5, (2s)-2-methyl-3-[4-(3-methyl-5-{[4-(trifluoromethyl)-pyrimidin-2-yl]amino}-phenyl)-1H-pyrazol-1-yl]-propan-1-ol]",≤ 100 nM,
"COCC(O)Cn1cc(-c2cc(C)cc(Nc3nccc(C(F)F)n3)c2)cn1 (stereo not drawn) [Example 5.22, 1-[4-(3-{[4-(difluoromethyl)pyrimidin-2-yl]amino}-5-methylphenyl)-1H-pyrazol-1-yl]-3-methoxypropan-2-ol]",≤ 100 nM,
"O=C(O)C1CCC(n2cc(-c3cc(Cl)cc(Nc4cc(C(F)(F)F)ccn4)n3)cn2)CC1 (stereo not drawn) [Example 1.55, 4-[4-(4-chloro-6-{[4-(trifluoromethyl)pyridin-2-yl]amino}pyridin-2-yl)-1H-pyrazol-1-yl]cyclohexanecarboxylic acid]",≤ 100 nM,
"Cc1cc(Nc2nccc(C)n2)cc(-c2cnn(CCC(N)=O)c2)c1 [Example 2.12, 3-(4-{3-methyl-5-[(4-methylpyrimidin-2-yl)amino]phenyl}-1H-pyrazol-1-yl)propanamide]",≤ 100 nM,
"Cc1cc(Nc2ncc(Cl)c(C)n2)cc(-c2cnn(CC3CNC(=O)O3)c2)c1 (stereo not drawn) [Example 2.32, 5-[(4-{3-[(5-chloro-4-methylpyrimidin-2-yl)amino]-5-methylphenyl}-1H-pyrazol-1-yl)methyl]-1,3-oxazolidin-2-one]",≤ 100 nM,
"6-methyl-2-pyrazolo-[1,5-a]pyridin-3-yl-N-[4-(trifluoromethyl)-pyridin-2-yl]pyrimidin-4-amine [Example 1.42]",≤ 100 nM,
"COc1ccnc(Nc2cc(C)cc(-c3cnn(C[C@](C)(O)CO)c3)c2)n1 [Example 2.88, (2S)-3-(4-{3-[(4-methoxypyrimidin-2-yl)amino]-5-methylphenyl}-1H-pyrazol-1-yl)-2-methylpropane-1,2-diol]",≤ 100 nM,
"Cc1cc(Nc2nccc(C(F)(F)F)n2)cc(-c2cnn(CC3NC(=O)OC3C)c2)c1 (stereo not drawn) [Example 3.127, 5-methyl-4-{[4-(3-methyl-5-{[4-(trifluoromethyl)pyrimidin-2-yl]amino}phenyl)-1H-pyrazol-1-yl]methyl}-1,3-oxazolidin-2-one]",≤ 100 nM,
"Cc1cc(Nc2nccc(C(F)F)n2)cc(-c2cnn(Cc3cnc(C)[nH]3)c2)c1 [Example 3.108, 4-(difluoromethyl)-N-(3-methyl-5-{1-[(2-methyl-1H-imidazol-5-yl)methyl]-1H-pyrazol-4-yl}phenyl)pyrimidin-2-amine]",≤ 100 nM,
"Cc1cc(Nc2cc(C(F)(F)F)ccn2)nc(-c2cnn(C3CCC(C(N)=O)c4ccccc43)c2)c1 (stereo not drawn) [Example 6.14, 4-[4-(4-methyl-6-{[4-(trifluoro-methyl)-pyridin-2-yl]amino}-pyridin-2-yl)-1H-pyrazol-1-yl]-1,2,3,4-tetrahydro-naphthalene-1-carboxamide]",≤ 100 nM,
"CC(O)c1ccnc(Nc2cccc(-c3cnn(C[C@](C)(O)CO)c3)c2)n1 (stereo partly drawn) [Example 2.93, (2S)-3-[4-(3-{[4-(1-hydroxyethyl)pyrimidin-2-yl]amino}phenyl)-1H-pyrazol-1-yl]-2-methylpropane-1,2-diol]",≤ 100 nM,
"Cc1cc(Nc2nccc(C)n2)cc(-c2cnn(C3CCC(C(=O)O)CC3)c2)c1 (stereo not drawn) [Example 1.58, 4-(4-{3-methyl-5-[(4-methylpyrimidin-2-yl)amino]phenyl}-1H-pyrazol-1-yl)cyclohexanecarboxylic acid]",≤ 100 nM,

# Further lines, results first:
IC50 [1],IC50 (read-out: rhSYK IC50),Compound
≤ 100 nM,,"Cc1cc(Nc2nccc(C(F)(F)F)n2)cc(-n2cc(C3(O)CCC(C(=O)O)CC3)cn2)c1 (stereo not drawn) [Example 19.11, 4-hydroxy-4-[1-(3-methyl-5-{[4-(trifluoromethyl)pyrimidin-2-yl]amino}phenyl)-1H-pyrazol-4-yl]cyclohexanecarboxylic acid]"
≤ 100 nM,29.4 nM,"Cc1cc(Nc2nccc(C)n2)cc(-c2cnn(C3CCCC(O)C3O)c2)c1 (stereo not drawn) [Example 10.10, 3-(4-{3-methyl-5-[(4-methylpyrimidin-2-yl)amino]phenyl}-1H-pyrazol-1-yl)cyclohexane-1,2-diol]"
≤ 100 nM,7.8 nM,"Cc1cc(Nc2nccc(C)n2)cc(-c2cnn(C3CCCC(O)C3O)c2)c1 (stereo not drawn) [Example 10.8, 3-(4-{3-methyl-5-[(4-methylpyrimidin-2-yl)amino]phenyl}-1H-pyrazol-1-yl)cyclohexane-1,2-diol]"
≤ 100 nM,,"Cc1cc(Nc2ncc(F)c(C(F)F)n2)cc(-c2cnn(CC(C)(O)CC#N)c2)c1 (stereo not drawn) [Example 20.5, 4-[4-(3-{[4-(difluoromethyl)-5-fluoropyrimidin-2-yl]amino}-5-methylphenyl)-1H-pyrazol-1-yl]-3-hydroxy-3-methylbutanenitrile]"
≤ 100 nM,,"Cc1cc(Nc2nccc(C(F)(F)F)n2)cc(-c2cnn(C[C@H](O)C(=O)O)c2)n1 [Example 11.18, (2S)-2-hydroxy-3-[4-(6-methyl-4-{[4-(trifluoro-methyl)pyrimidin-2-yl]amino}pyridin-2-yl)-1H-pyrazol-1-yl]propanoic acid]"
≤ 100 nM,,"Cc1cc(Nc2nccc(C(F)(F)F)n2)cc(-c2cnn(CC(O)c3ccc(C(N)=O)cc3)c2)c1 (stereo not drawn) [Example 8.24, 4-{1-hydroxy-2-[4-(3-methyl-5-{[4-(trifluorometh-yl)pyrimidin-2-yl]amino}-phenyl)-1H-pyrazol-1-yl]ethyl}-benzamide]"
≤ 100 nM,2.6 nM,"Cc1cc(Nc2nccc(C(F)F)n2)cc(-c2cnn(CC(C)(O)C(F)(F)F)c2)c1 (single isomer, unassigned) [Example 24.1, (S or R)-3-(4-(3-((4-(difluoromethyl)pyrimidin-2-yl)amino)-5-methylphenyl)-1H-pyrazol-1-yl)-1,1,1-trifluoro-2-methylpropan-2-ol]"
100 to 1000 nM,,"CCOC(=O)CCc1cnn(-c2cc(C)cc(Nc3nccc(C(F)(F)F)n3)c2)c1 [Example 19.2, Ethyl 3-[1-(3-methyl-5-{[4-(trifluoromethyl)-pyrimidin-2-yl]amino}phenyl)-1H-pyrazol-4-yl]propanoate]"
≤ 100 nM,,"COc1ccnc(Nc2cc(C)cc(-c3cnn(C[C@@H](O)C(=O)O)c3)c2)n1 [Example 11.8, (2R)-2-hydroxy-3-(4-{3-[(4-methoxy-pyrimidin-2-yl)-amino]-5-methyl-phenyl}-1H-pyrazol-1-yl)propanoic acid]"
≤ 100 nM,,"COc1ccnc(Nc2cccc(-c3cnn(C[C@@H](O)C(=O)O)c3)c2)n1 [Example 11.11, (2R)-2-hydroxy-3-(4-{3-[(4-methoxy-pyrimidin-2-yl)amino]phenyl}-1H-pyrazol-1-yl)propanoic acid]"
